From patent US11707636B2, “Methods and devices for modulating cellular activity using ultrasound” (priority 2008, dated 2023)
Entries after “also recorded” stand apart in the source; their conditions may differ.

Columns and labels:
motor cortex [1] = test system: motor cortex; parameters: species or system mice; conditions: mouse, in vivo
[2] = test system: synaptic vesicle exocytosis in hippocampal slice cultures; assay type: cell-based, mice
[3] = test system: Ca^2+ transients (OGB-1 signals) in neurons; assay type: cell-based, mice
motor cortex [4] = test system: motor cortex; parameters: species or system mice; conditions: mouse, in vivo; remark: listed apart in the source
[5] = test system: Na^+ transients in CA1 pyramidal neurons; assay type: cell-based, mice

NC1=N[C@H](O)[C@H]2[C@H]3O[C@]4(O)O[C@@H]([C@@H](O)[C@@]2(N1)[C@@H]4O)[C@]3(O)CO [TTX, tetrodotoxin]
US-evoked EMG activity / descending corticospinal circuit activity (motor cortex [1]): blocks | exocytosis (spH response) in response to low intensity ultrasound waveforms [2]: nearly abolishes; also recorded: nearly abolishing | average presynaptic temporal response of OGB-1 to USW-1 [3]: nearly abolishing | US-evoked cortical activity (motor cortex [4]): blocked | Na^+ transient response (ΔF/F0 CoroNa Green) to USW-1 [5]: blocked
